Data on one substance can be found in patent publication US20110236921A1, “CELL SYSTEM” (GE HEALTHCARE UK LIMITED, priority 2010, published 2011).

The subject of one experiment is WM115-Gal cells. Nature of the experiment: live-cell validation, cell viability (cell number) by nuclear-channel imaging, respiring cell line. The following applies: WM115-Gal (glucose-free galactose medium), 384-well live-cell plate; as low as 0.1 μM; low cell density at 0.1 μM→10.0 μM. It is filed as cell-based, human. Here is the method: (§1) Live cells are clearly visible in the full concentration range for WM115-Glu cells, but not for WM115-Gal cells (low cell density in 0.1 μM→10.0 μM antimycin A). FIG. 4b is a graphical representation of the same data.
(§2) Antimycin A acts on respiration […] of the electron transport chain. Glucose-deprived cells (WM115-Gal) are dependent on mitochondrial respiration for ATP, and are therefore sensitive to antimycin A. In contrast, the WM115-Glu cells grown in glucose-rich media are reliant on glycolysis for ATP generation and as predicted, these cells appear resistant to antimycin A.

A further experiment relates to WM115-Glu cells. Briefly: live-cell validation, cell viability (cell number) by nuclear-channel imaging, glycolytic cell line. Format: cell-based, human. The settings on record: WM115-Glu (glucose-rich medium), 384-well live-cell plate, tested at 10.0 μM; live cells visible over full concentration range. Here is the method: as §1, §2

As for antimycin A, the “sensitivity of cells to drug (live cells visible / cell number)” value with WM115-Gal cells is “susceptible”; in the experiment with WM115-Glu cells, “resistant”.
